Entries after “also recorded” stand apart in the source; their conditions may differ.
Tests used:
SURE CHO-M cell line [1] = experiment: Cell cycle analysis of CHO cells by propidium iodide DNA content flow cytometry; format: cell-based, Chinese hamster; conditions: overnight in medium; DMSO 1%, APH 1 μM, MTX 1 uM, NOCO 1.5 μM
Experimental: SURE CHO-M cell™ line (SELEXIS SA, Switzerland, see: U.S. Pat. Nos. 7,129,062, 8,252,917 and 9,879,297, and U.S. Patent Applications No. 20110061117 and 20120231449, the disclosures of which are incorporated herein by reference in their entirety) were cultivated overnight in asynchronous condition (FIG. 1A) or in presence of DMSO 1%, aphidicholin (APH) 1 μM, methotrexate (MTX) 1 uM or nocodazole (NOCO) 1.5 μM (FIG. 1B). Cells were then fixed in ethanol and labelled overnight at 4° C. with propidium iodide (PI; 50 μg/ml, Sigma) in presence of RNAse (0.5 μg/ml, Sigma). DNA content index histograms were acquired on Guava EasyCyte System® using INCYTE acquisition software. Each phase of cell cycle was defined according to the drug treatment as G1 arrest (DMSO); S phase (APH); G2 (NOCO). The % of G0/G1, % of S and % of G2/M arrested cells were then calculated (see Table FIG. 1B).
Cell cycle was analyzed by flow cytometry at release (18 h with drug) and at 1, 2, 4, 6 and 8 h after release. Released cells were then further cultivated according to the indicated time points. Asynchronous (control) cells were included as controls. DNA content index histograms were acquired on Guava EasyCyte System® (MILLIPORE) using INCYTE acquisition software.

SURE CHO-M cells [2] = experiment: Cell synchronization with plasmid or CRISPR/Cas-mediated transgene integration: fed-batch PCD; set-up: species or system Chinese hamster; conditions: G1 synchronization, DMSO 1% overnight, plasmid-based and CRISPR/Cas9-mediated expression system
Experimental: Asynchronous and synchronized cells were transfected with IgG-trastuzumab expressing vectors and cultivated under antibiotic selection for 10 days.
Stable expressing pools were subcultivated in complete culture medium for 4 subsequent passages in spin tubes (5 ml wv) (FIG. 4B). Cell density (Cv·ml^−1) and IgG titer values (μg·ml^−1) were determined. […] Growth and performance of each stable established IgG-expressing pool was then evaluated in spin tube in a 9-day fedbatch process using Acto CHO A+B feed (GE Healthcare). Fed-batch cultures were initiated at cell concentrations of 0.3×10^6 cells/ml in 5 mL working volume run. (FIG. 4C). The specific IgG productivity was determined as the slope of IgG concentration versus the integral number of viable cells (IVCD) and expressed as pg per cell and per day (pcd). Histograms represented the fold change of productivity per cell per day (PCD) obtained for DMSO and 4° C. pre-treatment compared to their respective untreated-controls cells.

SURE CHO-M cells [3] = experiment: Cell synchronization combined with DNA repair pathway modulators: CSA of trastuzumab IgG-producing cells; format: cell-based, Chinese hamster; conditions: for proportion of high-expressing cells: immediately after transfection, in combination with S and G2 arrest
Experimental: Freshly transfected cells were incubated in presence of various NHEJ, HR, MMEJ or SSA modulators immediately after electroporation to identify the DNA repair pathway involved in transgene integration and depending on the targeted cell cycle phase.

SURE CHO-M cells [4] = experiment: Cell recovery during antibiotic selection after synchronization and DNA repair modulation; conditions: S- and G2-synchronized cells, with DNA repair pathways inhibition
Experimental: SURE CHO-M cells™ (SELEXIS SA, Switzerland) were synchronized overnight with DMSO 1%, aphidicolin (APH) 1 μM, methotrexate (MTX) 1 μM or nocodazole (NOCO) 1.5 μM. After 18 hrs of incubation, cells were centrifuged, rinse twice into PBS 1× and resuspended in complete culture medium. Asynchronous and synchronized cells were transfected with trastuzumab IgG-plasmid expressing vector. Freshly transfected cells were then immediately resuspended and incubated overnight in presence of NU7441, RI-1, RS-1 or Olaparib small molecules (drugs provided by TOCRIS, CALBIOCHEM or APEXBIO TECHNOLOGY) before to change medium and start antibiotic selection.
Cell recovery behavior during antibiotic selection was monitored for each transfection condition and recorded as + or − signs.

SURE CHO-M cell line [5] = experiment: eGFP expression after transfection of synchronized CHO cells (cytometer imager); format: cell-based, Chinese hamster; conditions: day 2 and day 11 after transfection; synchronized prior to transfection vs non-synchronized cells
Experimental: (§1) Asynchronous and synchronized SURE CHO-M cell™ lines (SELEXIS SA, Switzerland) were transfected with eGFP- (FIG. 1E) or Trastuzumab IgG-expression SLX-vectors (FIG. 1F and FIG. 1G) immediately after drugs release. Transfection was done by microporation (NEON TRANSFECTION SYSTEM, INVITROGEN), generating a heterogeneous pool of transfected cells. 24 h after transfection, 5 ug/ml puromycin selection agent (GIBCO) was added to the BalanCD medium (IRVINE) supplemented with 6 mM L-Glutamine (HYCLONE). Expression pools performances were then evaluated for GFP or IgG at different time points after transfection. The percentage and GFP fluorescence mean intensity (FMI) level were evaluated on cytometer imager at d2 and d11 post-transfection (CELIGO S; NEXCELOM). Results were represented as fold change of control cells (FIG. 1E; histograms).

SURE CHO-M cell line [6] = experiment: Cell Secretion Assay (CSA) of Trastuzumab IgG-producing cells after synchronization; format: cell-based, Chinese hamster; conditions: 2 days post-transfection; vs asynchronized cells
Experimental: as §1
The percentage and secretion mean intensity (SMI) of IgG-producing cells were determined at d2 (FIG. 1F) and d10 (FIG. 1G) post-transfection using Cell Secretion Assay methods (CSA).

SURE CHO-M cells [7] = experiment: IgG transfection in presence of Sbf1 restriction enzyme and NU7441: CSA of stable cells; format: cell-based, Chinese hamster; conditions: Sbf1 present
Experimental: Asynchronized (AS) or G1-synchronized (G1) SURE CHO-M cells' (SELEXIS SA, Switzerland) were transfected with trastuzumab IgG-expressing vector in presence of Sbf1 restriction enzyme. Transfected cells were incubated overnight in presence of the NHEJ inhibitor—NU7441 ([…])—before change of medium and start antibiotic selection. The histograms show cell secretion assay (CSA) as percentage (white bar) and secretion mean intensity (SMI) (grey bar) of total producing cells (FIG. 6A) or of the high-, medium- and low-producing subpopulations (FIG. 6B) performed on stable trastuzumab-expressing cells.

SURE CHO-M cells [8] = experiment: Nu7441 treatment before transfection: productivity in 9-day fedbatch (ELISA titer, PCD); format: cell-based, Chinese hamster; conditions: 0.4 μM just before transfection
Experimental: SURE CHO-M cells™ (SELEXIS SA, Switzerland) were treated with 0.4 μM of DNA-PK inhibitor Nu7441 (TOCRIS) just before transfection of 3 μg of the antibody DNA fragment, respectively Trastuzumab (Tras) or Adalimumab (ADA). Transfection was done by microporation (Neon Transfection system, Invitrogen). 24 h after transfection, 5 μg/ml puromycin selection agent (Gibco) was added.
Growth and performance of the 6 top clones of each enzymatic condition were evaluated in spin tube in a 9-day fedbatch process using Acto CHO A+B feed (GE Healthcare). Fed-batch cultures were initiated at cell concentrations of 0.3×10^6 cells/ml in 5 mL working volume run. Cell density and cell viability along the process were evaluated by using a Guava System (Millipore) and supernatant sample was collected. Antibody product titer was evaluated by ELISA capture assay against the collected supernatant, at day 9 of the fedbatch process. Productivity per cell per day (PCD) was calculated as function of titer and viable cell density during the fedbatch process.

[9] = after 10 days of antibiotic selection, NU7441 0.4 mM overnight, AS_NU and G1_NU vs AS and G1

In the case of `C[C@@]1(CO)[C@H](O)CC[C@@]2(C)[C@H]1CC[C@H]1C[C@@H]3C[C@@]12CC[C@]3(O)CO` [APH, aphidicolin], the “cell cycle phase at which cells are arrested” value (“cell cycle phase” below) (SURE CHO-M cell line [1]) is reported as “S phase”.

`C[S+](C)[O-]` [DMSO, dimethyl sulfoxide] was tested, and the “productivity (fold change of PCD vs untreated control cells)” value (SURE CHO-M cells [2]) was “significant increase”, the “high-producing subpopulation (% HP) of stable IgG-producing cells” value (SURE CHO-M cells [3]; after 10 days of antibiotic selection, G1-synchronized, with or without DNA repair modulators, vs asynchronous controls) was “increase” and the “cell cycle phase” value (SURE CHO-M cell line [1]) was “G1 arrest; also recorded: G1 phase”.

In the case of `CN(Cc1cnc2nc(N)nc(N)c2n1)c1ccc(C(=O)N[C@@H](CCC(=O)O)C(=O)O)cc1` [MTX, methotrexate], the “cytotoxic effect (cells failed to pass the antibiotic selection)” value (SURE CHO-M cells [4]) is reported as “lethal cytotoxic effect”, the “cell cycle phase” value (SURE CHO-M cell line [1]) is reported as “G1/S phase” and the “mean intensity of GFP-expressing cells” value (SURE CHO-M cell line [5]) is reported as “higher”. The “percentage of GFP-expressing cells” value (SURE CHO-M cell line [5]) was “higher”, the “% of Trastuzumab-expressing cells” value (SURE CHO-M cell line [6]) was “higher” and the “mean intensity of Trastuzumab-expressing cells” value (SURE CHO-M cell line [6]) was “higher”.

For `COC(=O)Nc1nc2ccc(C(=O)c3cccs3)cc2[nH]1` [NOCO, nocodazole], the “cytotoxic effect (cells failed to pass the antibiotic selection)” value (SURE CHO-M cells [4]) was “lethal cytotoxic effect”, the “mean intensity of GFP-expressing cells” value (SURE CHO-M cell line [5]) was “higher” and the “percentage of GFP-expressing cells” value (SURE CHO-M cell line [5]) was “higher”. The “% of Trastuzumab-expressing cells” value (SURE CHO-M cell line [6]) was “higher” and the “mean intensity of Trastuzumab-expressing cells” value (SURE CHO-M cell line [6]) was “higher”.

With `O=c1cc(N2CCOCC2)oc2c(-c3cccc4c3sc3ccccc34)cccc12` [Nu7441] the “high- and medium-producing cells subpopulations” value (SURE CHO-M cells [7]; G1 phase synchronized and Nu7441 treated, after 10 days selection) was “significant increase”, the “mean intensity of IgG-expressing cells” value (SURE CHO-M cells [7]; [9]) was “higher” and the “percentage of IgG-expressing cells” value (SURE CHO-M cells [7]; [9]) was “higher”. The “proportion of IgG-producing cells” value (SURE CHO-M cells [7]; combination with G1 phase synchronization (G1_NU compared to AS)) was “best”, the “productivity per cell per day (PCD)” value (SURE CHO-M cells [8]; Trastuzumab) was “clear increased” and the “productivity per cell per day (PCD)” value (SURE CHO-M cells [8]; adalimumab) was “less evident”. The “productivity (antibody product titer)” value (SURE CHO-M cells [8]; both antibody molecules (Trastuzumab, Adalimumab)) was “increase” and the “proportion of high-expressing cells” value (SURE CHO-M cells [3]) was “higher”.

With `O=C(c1cc(Cc2n[nH]c(=O)c3ccccc23)ccc1F)N1CCN(C(=O)C2CC2)CC1` [Olaparib] the “proportion of high-expressing cells” value (SURE CHO-M cells [3]) was “higher”.

For `O=C1C(Cl)=C(N2CCOCC2)C(=O)N1c1ccc(Cl)c(Cl)c1` [RI-1], the “proportion of high-expressing cells” value (SURE CHO-M cells [3]) was “higher”.
